The values below come from PMC3660741, “Structure of a pore-blocking toxin in complex with a eukaryotic voltage-dependent K^+ channel” (eLife, 2013).

In one experiment the test system is Phe425Gly(Shaker). The following applies: Gly10Val(AgTx2)–Phe425Gly(Shaker) pair; ref Ranganathan et al., 1996; cited from earlier work. The text has this: (§1) From analyzing mutants of AgTx2 and Shaker, MacKinnon and Ranganathan derived a coupling energy of >3 kT for the Gly10Val(AgTx2)–Phe425Gly(Shaker) pair and ∼1.5 kT for the Gly10Val(AgTx2)–Thr449Cys(Shaker) pair ([Ranganathan et al., 1996]). Phe425 and Thr449 in Shaker map onto Gln353 and Val377 in paddle chimera (Figure 2B).

A further experiment concerns Thr449Cys(Shaker). The following applies: Gly10Val(AgTx2)–Thr449Cys(Shaker) pair; ref Ranganathan et al., 1996; cited from earlier work.
Description: as §1

Another experiment deals with Tyr445Phe(Shaker). The following applies: ref Ranganathan et al., 1996, cited from earlier work. From the text:
Another case worth highlighting is the coupling energy, ∼1.5 kT, between the Lys27Met(AgTx2)–Tyr445Phe(Shaker) pair. Tyr445 in Shaker maps to Tyr373 in paddle chimera (Figure 2B; [Ranganathan et al., 1996]). Since mutation of Tyr to Phe incurs only a loss of the hydroxyl group, one likely interpretation of this would have been that Lys27 contacts the hydroxyl group of Tyr445. Intriguingly, Lys27 only contacts the backbone carbonyl oxygen of Tyr445, a point farthest from the hydroxyl group (Figure 10B). However, since this is a tightly packed part of the protein structure with the hydroxyl grou ...

The target of experiment [1] is T1, Kv2.1 paddle–Kv1.2 chimera channel (paddle chimera) (Rattus norvegicus, UniProt P63142, DEL270-295/F267Y/F302L/I268V/INS296[…]/L298I/N207Q/V299M/V301I).
T1 construct: made in house; host or cells: Pichia pastoris
T1 sequence (P63142 with tags, fused parts or gaps with the stated changes): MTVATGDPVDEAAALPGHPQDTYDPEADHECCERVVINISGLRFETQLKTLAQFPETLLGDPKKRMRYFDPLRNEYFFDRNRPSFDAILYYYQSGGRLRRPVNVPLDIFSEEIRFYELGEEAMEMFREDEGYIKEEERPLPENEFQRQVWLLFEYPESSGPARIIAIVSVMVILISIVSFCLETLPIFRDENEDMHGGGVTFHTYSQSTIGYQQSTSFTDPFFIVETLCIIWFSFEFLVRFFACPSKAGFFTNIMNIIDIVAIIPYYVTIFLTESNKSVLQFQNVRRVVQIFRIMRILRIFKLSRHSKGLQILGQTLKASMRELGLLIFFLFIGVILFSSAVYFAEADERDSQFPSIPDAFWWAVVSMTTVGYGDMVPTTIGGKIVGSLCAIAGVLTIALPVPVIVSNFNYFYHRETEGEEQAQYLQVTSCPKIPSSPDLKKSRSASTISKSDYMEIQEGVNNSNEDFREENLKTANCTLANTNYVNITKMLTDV
T1 sequence (P62483 36-367 partner limits assumed): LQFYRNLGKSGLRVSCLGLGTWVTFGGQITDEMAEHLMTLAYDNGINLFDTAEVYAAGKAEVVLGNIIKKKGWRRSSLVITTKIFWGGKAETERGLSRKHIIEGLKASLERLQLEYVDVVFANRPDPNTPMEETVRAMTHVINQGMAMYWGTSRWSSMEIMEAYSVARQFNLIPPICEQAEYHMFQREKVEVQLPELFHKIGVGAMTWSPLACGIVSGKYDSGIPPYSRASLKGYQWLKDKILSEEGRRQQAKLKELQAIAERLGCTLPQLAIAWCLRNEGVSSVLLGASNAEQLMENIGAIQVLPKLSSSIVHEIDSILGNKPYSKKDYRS
The experiment in a line: CTX inhibition of paddle chimera in planar lipid bilayer, dose-response fitted for Kd. It counts as biochemical. Particulars: CsCl vs KCl on both sides; planar bilayer of 20 mg/ml DPhPC; holding −110 mV, pulsed to +110 mV; n = 2–4. From the text:
Figure 8. Effects of Lys27Met mutation of CTX and Cs^+ separately on toxin-channel interactions. (A) CTX inhibition. The fraction of unblocked current (I/Imax, mean ± SEM or range of mean; n = 2–4) is graphed as a function of CTX concentration (in nM) and fit to the equation I/Imax = 0.1 + 0.9 × (1 + [CTX]/Kd)^−1. Voltage pulses: holding −110 mV, depolarized to +110 mV, followed by a step back to −110 mV. Paddle chimera–wild-type CTX with KCl on both sides is shown in red, paddle chimera–wild-type CTX with CsCl on both sides is shown in blue and paddle chimera–Lys27Met CTX with KCl on both sides is shown in black. The modified equation accounts for approximately 10% current that is due largely to the channels facing the other side and are not blocked by toxin. (B) The pore domains from two diagonal subunits of paddle chimera (molecule A) in the Lys27MetCTX–paddle chimera complex are shown in green α carbon trace and a toxin-omit weighted 2Fo − Fc electron density map is shown in wire mesh at 1σ contour level. […]
The membranes were held at −110 mV and repeatedly pulsed to +110 mV test voltage. CTX inhibition data measured with different concentrations of CTX or Lys27Met mutant of CTX were fit to the equation: I/Imax=0.1+0.9×(1+[CTX]/Kd)^−1. […]

A further experiment addresses paddle chimera. The following applies: planar lipid bilayers; ref Tao and MacKinnon, 2008; read-out: Kd (inhibition of paddle chimera); cited from earlier work.
For a further experiment, the system named is BK channel. The following applies: 1988, cited from earlier work. The text has this: Charybdotoxin (CTX; Figure 1B), a pore-blocking toxin for K^+ channels, is a 37-residue peptide isolated from the venom of the scorpion Leiurus quinquestriatus ([Miller et al., 1985]).
A further experiment relates to Shaker K+ channel. The following applies: cited from earlier work. The text has this:
In studies with the BK channel, [MacKinnon and Miller (1988)] first observed that permeant ions coming through the channel from the intracellular side enhance the dissociation of a toxin bound to its receptor on the extracellular side.

In experiment [2] the target is Kv2.1 paddle–Kv1.2 chimera channel in complex with the rat β2-core subunit (rat) (UniProt P63142). The experiment in a line: planar lipid bilayer electrophysiology (inhibition of channel current).

Chain of charybdotoxin, wild type (P13487 23-59): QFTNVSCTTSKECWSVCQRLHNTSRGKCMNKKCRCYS

For “Gly10Val(AgTx2): Gly10Val mutant of AgTx2 (Ranganathan et al., 1996)”, the values for the coupling energy in the experiment with Phe425Gly(Shaker) and in the experiment with Thr449Cys(Shaker) were greater than 3 kT and roughly 1.5 kT, respectively.
For “Lys27Met(AgTx2): Lys27Met mutant of AgTx2 (Ranganathan et al., 1996)”, in the experiment on Tyr445Phe(Shaker) (Lys27 (AgTx2) and Tyr445 (Shaker)), the “K+ dependence of the interaction between the two residues” value is “dependent on the K^+ concentration”. The coupling energy in the experiment on Tyr445Phe(Shaker) (Lys27Met(AgTx2)–Tyr445Phe(Shaker) pair) is given as roughly 1.5 kT.
By Kd is commonly meant the free concentration of one partner at which half of the binding sites on the other are occupied at equilibrium, for simple one-to-one binding. As to charybdotoxin [CTX], the “reduction in affinity in the presence of Cs+ compared to K+” value in experiment [1] is listed as roughly 10 fold. Further, at paddle chimera, the Kd was roughly 20 nM. In the experiment with BK channel (ref Anderson et al.), the “channel states competent for toxin binding” value was “both the open and closed states of the channel are competent for toxin binding”; the “role of electrostatic interactions in affinity” value is reported as “electrostatic interactions play an important role in enhancing the toxin’s affinity”. In addition, the “voltage dependence of affinity” value in the experiment with BK channel (results from trans-enhanced dissociation by permeant ions entering from the intracellular side, ref MacKinnon and Miller) is listed as “voltage dependent”. The “trans-enhanced dissociation effect of permeant ions on CTX block” value in the experiment on Shaker K+ channel (ref Goldstein and Miller, 1993) is on record as “subsequently confirmed for Shaker as well”.
“charybdotoxin, wild type (from UniProt P13487 23-59) (peptide)” yielded a fold reduction of affinity in Cs+ against K+ in experiment [2] of 10 fold.
In the case of “mutation of Lys27 to Arginine: conservative mutation of Lys27 to Arginine, literature CTX mutant (Goldstein et al., 1994)”, the “destabilization of the toxin-channel complex” value in the experiment on Shaker K+ channel (conservative mutation of Lys27 to Arginine, Shaker, ref Goldstein et al., 1994) is roughly 1000 fold.
